The target in assay [1] is T1, full-length androgen receptor (Homo sapiens, UniProt P10275).
T1 construct: HEK293 cells stably expressing the full-length androgen receptor; expressed in transfected cells
T1 sequence (P10275 1-920): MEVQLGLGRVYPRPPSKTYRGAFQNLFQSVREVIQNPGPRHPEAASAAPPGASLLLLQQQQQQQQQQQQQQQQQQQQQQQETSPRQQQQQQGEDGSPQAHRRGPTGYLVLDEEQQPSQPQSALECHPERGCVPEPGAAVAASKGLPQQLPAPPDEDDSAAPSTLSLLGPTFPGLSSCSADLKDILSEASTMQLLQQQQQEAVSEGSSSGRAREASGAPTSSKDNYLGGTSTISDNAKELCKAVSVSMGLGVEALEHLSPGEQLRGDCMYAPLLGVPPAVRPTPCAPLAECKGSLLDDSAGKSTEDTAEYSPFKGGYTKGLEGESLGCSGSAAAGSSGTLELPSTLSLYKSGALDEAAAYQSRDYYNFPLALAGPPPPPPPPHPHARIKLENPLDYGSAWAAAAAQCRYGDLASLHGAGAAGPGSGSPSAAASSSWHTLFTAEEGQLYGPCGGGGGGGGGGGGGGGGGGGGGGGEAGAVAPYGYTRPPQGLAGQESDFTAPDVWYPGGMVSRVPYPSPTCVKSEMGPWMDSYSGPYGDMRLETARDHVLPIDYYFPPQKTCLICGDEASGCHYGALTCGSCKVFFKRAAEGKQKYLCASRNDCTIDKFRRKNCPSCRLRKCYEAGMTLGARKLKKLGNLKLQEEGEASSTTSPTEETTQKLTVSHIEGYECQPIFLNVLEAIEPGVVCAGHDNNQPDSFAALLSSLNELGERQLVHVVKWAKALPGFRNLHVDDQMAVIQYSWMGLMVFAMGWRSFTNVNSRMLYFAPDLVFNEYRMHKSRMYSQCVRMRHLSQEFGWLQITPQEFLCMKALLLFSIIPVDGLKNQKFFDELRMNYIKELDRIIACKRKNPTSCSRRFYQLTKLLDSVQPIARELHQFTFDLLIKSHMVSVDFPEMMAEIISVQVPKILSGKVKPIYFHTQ
Nature of the assay: AR antagonism assay (HEK293, testosterone 1 nM, Steady-glo). Format: cell-based. Conditions: Table 8; testosterone 1 nM; read-out: AR antagonism. As for the experimental part:
AR antagonism assay: To evaluate AR antagonist activity, test compound was added to the assay plate (top dose 10 μM, 3 fold serial dilution, 10 point dose response). HEK293 cells stably expressing the full-length androgen receptor were seeded at a density of 20000 cells/well in the assay plate. The assay plate was then incubated at room temperature for 10 minutes and at 37° C., 5% CO2 for 20 minutes. Testosterone was added to the assay plate at 1 nM final concentration and the assay plate was incubated at 37° C., 5% CO2 for 20 h. After the incubation period, Steady-glo was added to the assay plate and mixed at room temperature for 20 minutes on an orbital shaker, before reading out on the EnVision plate reader.

The target in assay [2] is Human recombinant PARP1 (Homo sapiens, UniProt P09874). Kind of assay: RBC HotSpot PARP1 assay (radioisotope-based filter binding). The conditions noted are these: Table 9; read-out: PARP1. It is filed as biochemical. The method, then:
The following methods are for evaluating the in vitro biology properties of the test articles. • a. RBC HotSpot Poly(ADP-ribose) Polymerases 1 (PARP1) and Poly(ADP-ribose) Polymerases 2 (PARP2) Assays: The assay was conducted at Reaction Biology Corporation (RBC; Malvern, PA). The assay principle is radioisotope-based filter binding assay where incorporation of radioisotope-labeled NAD^+ into the substrate captured on filter is detected after washout free NAD^+. Data were analyzed using Excel and GraphPad Prism software for IC50 curve fits. Each assay was conducted with PJ34 as a positive control. PARP1 assay: Human recombinant PARP1 at a final concentration of 2.5 nM was combined with histone H4 (20 μM) and test articles at various concentrations in reaction buffer (50 mM Tris-HCL, pH 8.0, 50 mM NaCl, 10 mM MgCl2, 1 mM DTT, 1% DMSO, and 20 μg/mL activated DNA). The solution was inoculated for 20 min at room temperature and the reaction initiated by adding [adenylate-^32P]-Nicotinamide Adenine Dinucleotide, ^32P-NAD^+ at a final concentration of 10 μM. After incubation for 2 hrs at room temperature, the reaction mixture was filtered and washed with 0.75% phosphoric acid for radioactivity detection. • ii. PARP2 assay: Human recombinant PARP2 at a final concentration of 2.5 nM was combined with histone H3 (20 μM) and test articles at various concentrations in reaction buffer (50 mM Tris-HCL, pH 8.0, 50 mM NaCl, 10 mM MgCl2, 1 mM DTT, 1% DMSO, and 20 μg/mL activated DNA). The solution was inoculated for 20 min at room temperature and the reaction was initiated by adding [adenylate-^32P]-Nicotinamide Adenine Dinucleotide, ^32P-NAD^+ at a final concentration of 10 μM. After incubation for 2 hrs at room temperature, the reaction mixture was filtered and washed with 0.75% phosphoric acid for radioactivity detection. • b. AR binding assay: AR in LNCaP cytosol was used for determining the binding affinity of test articles and the reference compound—progesterone (Sigma, Cat: E2785, St. Louis, MO). IC50 s were determined using 8 concentrations/compound. Cytosol is plated at 200 μg/well (100 μL) into a 96-well conical polypropylene plate (Agilent, Cat: 5042-1385, Santa Clara, CA) and mixed with 3 μL of test compound. After adding 100 μL of ^3H-methyltrienolone (PerkinElmer, Cat: NET590250UC, San Jose, CA), the plate was sealed and shaken at 300 rpm at 4° C. for 24 hours. Post incubation, 100 μL of radioligand adsorption buffer containing 10 mM Tris-HCl, pH 7.4; 1.5 mM EDTA; 1 mM DTT; 0.25% charcoal; 0.0025% dextran was added to individual wells. Plate was shaken for 15 min at 4° C. followed by centrifugation at 3000 rpm for 30 min at 4° C. 150 μL of supernatant is transferred into scint-tube (PerkinElmer, Cat: 6000192) and mixed with 2 mL of Ultima Gold Cocktail (PerkinElmer, Cat: 6013329). Radioactivity is counted using a TriCarb 2910 TR scintillation counter (PerkinElmer). Inhibition of the radioactivity by test articles was calculated using the equation below: % Inhibition=(1−(Assay well−Average_LC)/(Average_HC−Average_LC))×100%. • IC50 values (Table 6) were calculated and graphed using the model “log(inhibitor) vs. response—Variable slope” included in GraphPad Prism 5 (San Diego, CA). The Ki values were further calculated using the equation below where [L] is the radioligand concentration (1 nM) used in this study. Kd value was 0.332 nM. Ki=IC50/(1+[L]/Kd) • c. AR transactivation: Human AR cloned into a CMV vector backbone is used for the transactivation study. HEK-293 cells are plated at 80,000 cells per well of a 24 well plate in DME+5% csFBS. Twenty four hours later, the cells are transfected using Lipofectamine (Invitrogen, Carlsbad, CA) with 0.25 μg GRE-LUC, 0.01 μg CMV-LUC (renilla luciferase) and 25 ng of the AR in OPTIMEM medium. The cells are treated 24 hrs after transfection with various ligands (10^−12 to 10^−5 M final concentrations) and luciferase assay performed 48 hours after transfection. […]

Each structure is given as a SMILES string. Where only a bound is given, the exact number is not on record here.

Human recombinant PARP1, sequence (P09874 whole entry): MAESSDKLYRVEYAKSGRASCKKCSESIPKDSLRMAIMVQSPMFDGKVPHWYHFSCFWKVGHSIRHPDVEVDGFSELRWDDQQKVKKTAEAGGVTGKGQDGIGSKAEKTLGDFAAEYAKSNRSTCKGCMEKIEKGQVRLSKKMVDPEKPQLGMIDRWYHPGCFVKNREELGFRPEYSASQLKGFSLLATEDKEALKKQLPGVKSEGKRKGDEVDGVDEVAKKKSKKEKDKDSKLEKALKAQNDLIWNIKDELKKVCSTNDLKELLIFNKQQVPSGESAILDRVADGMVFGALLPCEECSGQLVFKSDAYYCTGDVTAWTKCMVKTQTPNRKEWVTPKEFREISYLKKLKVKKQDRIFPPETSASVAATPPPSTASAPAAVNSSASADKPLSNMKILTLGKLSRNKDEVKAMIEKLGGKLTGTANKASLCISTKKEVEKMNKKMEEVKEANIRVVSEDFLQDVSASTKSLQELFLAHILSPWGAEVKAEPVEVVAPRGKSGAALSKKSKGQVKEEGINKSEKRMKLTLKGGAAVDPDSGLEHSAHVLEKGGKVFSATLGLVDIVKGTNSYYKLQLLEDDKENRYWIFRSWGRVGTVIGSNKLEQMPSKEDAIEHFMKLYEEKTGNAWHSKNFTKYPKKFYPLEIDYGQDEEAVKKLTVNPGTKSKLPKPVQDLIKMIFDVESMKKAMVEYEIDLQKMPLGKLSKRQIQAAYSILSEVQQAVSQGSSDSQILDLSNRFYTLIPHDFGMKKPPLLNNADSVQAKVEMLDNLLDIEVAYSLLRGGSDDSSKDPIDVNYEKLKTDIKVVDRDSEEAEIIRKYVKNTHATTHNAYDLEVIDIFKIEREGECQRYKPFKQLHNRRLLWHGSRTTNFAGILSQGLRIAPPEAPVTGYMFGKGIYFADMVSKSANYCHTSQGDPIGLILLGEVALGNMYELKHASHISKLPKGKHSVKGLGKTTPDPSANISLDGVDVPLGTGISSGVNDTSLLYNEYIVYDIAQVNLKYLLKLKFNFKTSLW

Regarding `CC#C[C@]1(O)CC[C@H]2[C@@H]3CCC4=CC(=O)CCC4=C3[C@@H](c3ccc(N(C)CCCCCC(=O)NCCOCCOCC(=O)N4CCN(C(=O)c5cc(Cc6n[nH]c(=O)c7ccccc67)ccc5F)CC4)cc3)C[C@@]21C` [Compound 1429, N-(2-(2-(2-(4-(2-fluoro-5-((4-oxo-3,4-dihydrophthalazin-1-yl)methyl)benzoyl)piperazin-1-yl)-2-oxoethoxy)ethoxy)ethyl)-6-((4-((8S,11R,13S,14S,17S)-17-hydroxy-13-methyl-3-oxo-17-(prop-1-ynyl)-2,3,6,7,8,11,12,13,14,15,16,17-dodecahydro-1H-cyclopenta[a]phenanthren-11-yl)phenyl)(methyl)amino)hexanamide], the IC50 in assay [1] is more than 10 µM; in assay [2], less than 1 nM.

Values taken from patent publication US11952349B2, “Anti-cancer nuclear hormone receptor-targeting compounds” (Nuvation Bio Inc., priority 2019, dated 2024).
